Measurements from patent US6512112B2, “Aminoaryl oxazolidinone N-oxides” (Pharmacia & Upjohn Company, priority 1995, dated 2003).
Converted amounts (≈) assume the structure as drawn. Read-outs that look alike come from different tables or passages of the source.

Tests used:
[1] = Solubility in pH 7, 50 mM phosphate buffer; format: physicochemical; conditions: thermodynamic from solid
Procedure: The samples are capped and stirred via magnetic stir bars for 24 to 48 hours at room temperature. Samples are filter centrifuged (800×g) for 5-10 minutes through Millipore Ultrafree-MC 0.22 Micron filter units. The supernate is analyzed by either UV or HPLC to quantitate the drug concentration.

S. Aureus UC ® 9213 = experiment: Minimum inhibitory concentration (MIC) by agar dilution; format: cell-based; conditions: Staphylococcus aureus, UC9213
Procedure: (§1) The oxazolidinone compounds of the present invention have useful activity against a variety of microorganisms. The in vitro activity of compounds of the present invention are assessed by standard testing procedures such as the determination of minimum inhibitory concentration (MIC) by agar dilution as described in “Methods for Dilution Antimicrobial Susceptiblity Tests for Bacteria That Grow Aerobically” (MFT) published January 1993 by the National Committee for Clinical Laboratory Standards (NCCLS), 771 East Lancaster Avenue, Villanova, Pa. 19084, USA. The activity of selected compounds of the present invention against Staphylococcus aureus and Streptococcus pneumoniae are shown in Table 2.

S. Pneumoniae UC ® 9912 = experiment: as above; format: cell-based; conditions: Streptococcus pneumoniae, UC9912
Procedure: as §1

[2] = Reduction of the N-oxide in vivo following intravenous and oral administration to rats; set-up: species or system male Sprague-Dawley rats; conditions: rat
Procedure: The rate and extent of reduction of the N-oxide of Example 2 was investigated in vivo using the following procedures: Six male Sprague-Dawley rats are used for this study. Three rats are given a single intravenous 10 mg/kg dose of the N-oxide and three rats are given a single oral 25 mg/kg dose of the N-oxide. Blood is collected pre-dose and up to 24 h post dose. The plasma is analyzed for the N-oxide and the parent amine by LC-MS.

[3] = aqueous buffer, pH 7, 50 mM phosphate buffer or other vehicle, room temperature, 24 to 48 hours, read-out: N-Oxide Solubility
[4] = aqueous buffer, parent amine of the example's N-oxide, pH 7, 50 mM phosphate buffer or other vehicle, room temperature, 24 to 48 hours, read-out: Parent Amine Solubility

Structure (SMILES)	melting point [°C]	solubility [1, 3] [µg/mL]	MIC (S. Aureus UC ® 9213) [µg/mL]	MIC (S. Pneumoniae UC ® 9912) [µg/mL]	solubility [1, 4] [µg/mL]	further results
CC(=O)NC[C@H]1CN(c2ccc([N+]3([O-])CCN(C(=O)CO)CC3)c(F)c2)C(=O)O1 (hydrate or solvate) [Example 1, (S)-N-[[3-[3-fluoro4-[4-(hydroxyacetyl)-1-piperazinyl]phenyl]-2-oxo-5-oxazolidinyl]-methyl]acetamide N-oxide]	158 to 160					
CC(=O)NC[C@H]1CN(c2ccc([N+]3([O-])CCN(C(=O)CO)CC3)c(F)c2)C(=O)O1 [Example 1, (S)-N-[[3-[3-fluoro4-[4-(hydroxyacetyl)-1-piperazinyl]phenyl]-2-oxo-5-oxazolidinyl]-methyl]acetamide N-oxide]		348000 (≈ 848 mM)	2 (≈ 0.00487 mM)	0.5 (≈ 0.00122 mM)		
CC(=O)NC[C@H]1CN(c2ccc([N+]3([O-])CCOCC3)c(F)c2)C(=O)O1 [Example 2]	202 to 204	534000 (≈ 1510 mM)	4 (≈ 0.0113 mM)	1 (≈ 0.00283 mM)		solubility ([1]; water, value stated, read-out: water solubility): 409000 µg/mL (≈ 1160 mM); N-oxide found in plasma ([2]; 10 mg/kg intravenous N-oxide, first time point immediately post injection, LC-MS): Only traces; Cmax, Tmax and AUC values for the parent amine compared with direct administration of the parent amine ([2]; N-oxide 10 mg/kg intravenous and 25 mg/kg oral, same doses and protocol): very similar; conversion of the N-oxide to the parent amine in vivo ([2]; intravenous and oral dosing): rapid and essentially quantitative
CC(=O)NC[C@H]1CN(c2cc(F)c([N+]3([O-])CCN(C(=O)CO)CC3)c(F)c2)C(=O)O1 [Example 4, (S)-N-[[3-[3,5-difluoro-4-[4-(hydroxyacetyl)-1-piperazinyl]phenyl]-2-oxo-5-oxazolidinyl]-methyl]acetamide N-oxide]	100 to 105		2 (≈ 0.00467 mM)	0.5 (≈ 0.00117 mM)		
CC(=O)[NH+]([O-])C[C@@H]1CN(c2ccc(N3CCN(S(=O)(=O)CC#N)CC3)c(F)c2)C(=O)O1 (stereo partly drawn) [Example 5, (S)-N-[[3-[4-[4-[(cyanomethyl)sulfonyl]-1-piperazinyl]3-fluorophenyl]-2-oxo-5-oxazolidinyl]methyl]acetamide N-oxide]	153 to 156		4 (≈ 0.00878 mM)	0.5 (≈ 0.0011 mM)		
CC(=O)NC[C@H]1CN(c2ccc([N+]3([O-])CCN(S(=O)(=O)c4ccccc4C#N)CC3)c(F)c2)C(=O)O1 [Example 6, (S)-N-[[3-[4-[4-[(2-cyanophenyl)sulfonyl]-1-piperazinyl]-3-fluorophenyl]-2-oxo-5-oxazolidinyl]methyl]acetamide N-oxide]	190 to 192	1100 (≈ 2.13 mM)	2 (≈ 0.00386 mM)	0.25 (≈ 0.000483 mM)		
CC(=O)NC[C@H]1CN(c2ccc(N3CCOCC3)c(F)c2)C(=O)O1 [parent amine of Example 2, (S )-N-[[3-[3 -Fluoro-4-(4-morpholinyl)phenyl]-2-oxo-5-oxazolidinyl]methyl]-acetamide, reference compound]						time parent amine detected in plasma post dosing ([2]; after dosing of the N-oxide, lower limit of quantitation ≈0.01 μg/mL): up to 10 h

Further lines, with some results ahead:

melting point [°C]	solubility [1, 3] [µg/mL]	MIC (S. Aureus UC ® 9213) [µg/mL]	MIC (S. Pneumoniae UC ® 9912) [µg/mL]	solubility [1, 4] [µg/mL]	Structure (SMILES)	further results
				4200 (≈ 10.6 mM)	CC(=O)NC[C@H]1CN(c2ccc(N3CCN(C(=O)CO)CC3)c(F)c2)C(=O)O1 [parent amine of Example 1, (S)-N-[[3-[3-Fluoro-4-[4-(hydroxyacetyl)-1-piperazinyl]-phenyl]-2-oxo-5-oxazolidinyl]methyl]-acetamide, reference compound]	
				280 (≈ 0.676 mM)	CC(=O)NC[C@H]1CN(c2ccc(N3CCN(S(C)(=O)=O)CC3)c(F)c2)C(=O)O1 [parent amine of Example 3, (S)-N-[[3-[3-fluoro-4-[4-(methylsulfonyl)-1-piperazinyl]phenyl]-2-oxo-5-oxazolidinyl]-methyl]acetamide, reference compound]	
				31 (≈ 0.0618 mM)	CC(=O)NC[C@H]1CN(c2ccc(N3CCN(S(=O)(=O)c4ccccc4C#N)CC3)c(F)c2)C(=O)O1 [parent amine of Example 6, (S)-N-[[3-[4-[4-[(2-cyanophenyl)sulfonyl]-1-piperazinyl]-3-fluorophenyl]-2-oxo-5-oxazolidinyl]methyl]acetamide, reference compound]	
